Experimental data from US20140205670A1, “STABLE SOLID PREPARATIONS” (TAKEDA PHARMACEUTICAL COMPANY LIMITED, priority 2002, published 2014).

Experiment: Stability Test of Amorphous Lansoprazole R-Isomer (compatibility with basic substances, appearance change)
Type: physicochemical
Conditions: blending ratio A/base 1/1 (1/0 for No Addition)
Description: (1) 100 mg of amorphous lansoprazole R-isomer was weighed precisely under low humidity environment, and put in a transparent glass bottle. Subsequently, 100 mg of basic substance as a stabilizer of basic inorganic salt shown below was weighed precisely under low humidity environment, and placed in the bottle containing amorphous lansoprazole R-isomer. Then, the bottle was capped, and shaken slightly with hand to mix.
[1] magnesium carbonate MgCO3 [2] calcium carbonate CaCO3 [3] magnesium oxide MgO [4] magnesium hydroxide Mg (OH)2 [5] no basic substance (2) The prepared samples were stored under the condition of 40° C./75% RH (open) for 5 days. Color tones were named and color codes were numbered based on International Color Manual so as to estimate the appearance change of samples everyday. At the end of experiment, the stability was judged by comparing the color tone with that of the sample stored at 5° C. as initial sample. In addition, A represents amorphous lansoprazole R-isomer in Table 2.

color tone, Storage conditions initial (5° C. 5 days) (100 mg amorphous lansoprazole R-isomer (A) + 100 mg basic substance, stored at 5° C. as initial sample): pale greenish | appearance change after 40° C./75% RH 5 days compared with initial sample (5° C.) (40° C./75% RH (open), 5 days): (changed) | color tone, Storage conditions 40° C./75% RH 5 days (40° C./75% RH (open), 5 days): pale yellow
SMILES: Cc1c(OCC(F)(F)F)ccnc1C[S@@+]([O-])c1nc2ccccc2[nH]1 [No Addition]
